This is an account of results in patent US20030215896A1, “Gamma secretase substrates and in vitro assays” (priority 2003, published 2003).

Series [1] relates to γ-secretase (HeLa cell membranes). In words: In vitro γ-secretase assay with HeLa cell membranes and SEQ. ID. NO. 9 substrate in presence of detergent, ECL. Conditions: detergent 0.75%. In kind it is biochemical, human.
The test system is the same in series [2]. Put plainly: Extraction of γ-secretase activity from HeLa cell membranes with CHAPSO detergent. The format is biochemical, human. Here is the method:
HeLa S3 cells from American Type Culture Collection (Rockville, Md.) were grown in bioreactors (Analytical Biological Services; Wilmington, Del.) in 90% DMEM, 10% fetal bovine serum, 2 mM glutamine and 100 μg/ml each of penicillin and streptomycin. […] The cells were broken by single-pass through a French Press (Spectronic Instruments, Rochester, N.Y.). Cell debris and nuclei were removed by centrifugation at 800×g for 10 minutes. The supernatant solutions were centrifuged at 100,000×g for 60 minutes. The ensuing pellets were resuspended in buffer A and the centrifugation was repeated. The final membrane pellets were resuspended in buffer A to yield a protein concentration of approximately 12 mg/ml. All procedures were performed at 4° C. The membranes were stored at −70° C. […] The supernatant solutions (solubilized fractions) and the pellets (membrane fractions) were then assayed for γ-secretase activity with the SEQ. ID. NO. 9 substrate. […] The ensuing supernatant solution provides “solubilized γ-secretase”. […] In vitro assays measuring γ-secretase activity were performed using cell membranes or as “solubilized γ-secretase”. In one reaction, SEQ. ID. […] ID. NO. 9 substrate at 37° C. in the presence of detergent in buffer B.

Series [3] has the same test system. Put plainly: In vitro γ-secretase assay with HeLa cell membranes and SEQ. ID. NO. 9 substrate in presence of detergent, ECL. In kind it is biochemical, human. The following applies: for Effect of detergent on in vitro γ-secretase cleavage of substrate: SEQ. ID. NO. 9 substrate. As for the experimental part: HeLa S3 cells from American Type Culture Collection (Rockville, Md.) were grown in bioreactors (Analytical Biological Services; Wilmington, Del.) in 90% DMEM, 10% fetal bovine serum, 2 mM glutamine and 100 μg/ml each of penicillin and streptomycin. Frozen HeLa S3 cells were resuspended in buffer A (50 mM MES, pH 6.0, 5 mM MgCl2, 5 mM CaCl2, 150 mM KCl) containing “complete” protease inhibitor cocktail (Boehringer Mannheim, Indianapolis, Ind.). The cells were broken by single-pass through a French Press (Spectronic Instruments, Rochester, N.Y.). Cell debris and nuclei were removed by centrifugation at 800×g for 10 minutes. The supernatant solutions were centrifuged at 100,000×g for 60 minutes. The ensuing pellets were resuspended in buffer A and the centrifugation was repeated. The final membrane pellets were resuspended in buffer A to yield a protein concentration of approximately 12 mg/ml. All procedures were performed at 4° C. The membranes were stored at −70° C.
In vitro assays measuring γ-secretase activity were performed using cell membranes or as “solubilized γ-secretase”. In one reaction, SEQ. ID. NO. 9 substrate (1.7 μM) was incubated with cell membranes (0.5 mg/ml) in presence of detergent in buffer B (50 mM PIPES, pH 7.0, 5 mM MgCl2, 5 mM CaCl2, 150 mM KCl) at 37° C. In another reaction, supernatant solution from CHAPSO-extracted HeLa cell membranes (“solubilized γ-secretase”) was incubated with SEQ. ID. NO. 9 substrate at 37° C. in the presence of detergent in buffer B. Generally, 0.25% CHAPSO was provided as the detergent. The reactions were stopped by adding RIPA (150 mM NaCl, 1.0% NP-40, 0.5% DOC, 0.1% SDS, 50 mM Tris HCl, pH 8.0).
The samples were centrifuged and the supernatant solutions were assayed for the Aβ peptides by ECL. The Aβ40- and Aβ42-related products from γ-secretase-mediated processing of SEQ. ID. NO.
SEQ. ID. NO. 9 substrate (1.7 μM) was incubated with cell membranes (0.5 mg/ml) in presence of CHAPSO, CHAPS or Triton X-100 (0, 0.125, 0.25, 0.5, or 1%) in buffer B at 37° C.

In a further series the target is γ-secretase (Cricetulus griseus, UniProt G3HNF2). Put plainly: Radiolabeling pulse-chase of CHO/APP695 cells, 4G8 immunoprecipitation, SDS-PAGE. In kind it is cell-based, Chinese hamster. Conditions: 1 μM, data not shown. Here is the method: The effect of a γ-secretase inhibitor on γ-secretase activity was measured using Chinese hamster ovary fibroblasts that stably express APP695 (CHO/APP695, provided by Dr. S. Sisodia (University of Chicago, Chicago, Ill.)). CHO/APP695 were grown in 90% DMEM, 10% fetal bovine serum, 2 mM glutamine, 100 μg/ml each of penicillin and streptomycin, and 0.2 mg/ml G418. CHO/APP695 cells were seeded in 96-well dishes at 2×10^4 cells/well. Aβ-peptide formation was detected by either ECL or using radiolabeling.
For the radiolabeling experiments, CHO/APP695 cells (in 100 mm dishes) were grown to 70% confluency in complete media. Afterwards, these cells were cultured±1 μM L-685,458 for 24 hours, switched to Met-free medium (±1 μM L-685,458) for 20 minutes, pulsed with 1 mCi/ml of S^35-Met (Amersham Life Sciences, Inc, Arlington Heights, Ill.) in Met-free medium (±1 μM L-685,458) for 2 hours, and subsequently chased in complete medium (±1 μM L-685,458) for 45 minutes. The cells were washed with Hanks balanced salt solution and lysed with 1 ml of RIPA. The insoluble residue was removed by centrifugation. The 4G8 antibody (final concentration, 2 μg/ml) was added to the supernatant fractions. The samples were gently rotated overnight at 4° C. Protein G-agarose beads (Pharmacia Biotech, Piscataway, N.J.) were added the next day, the samples were rotated for an additional 2 hours and then centrifuged. […]

For series [4], the system named is solubilized γ-secretase (CHAPSO-extracted HeLa cell membranes). In words: In vitro γ-secretase assay with "solubilized γ-secretase" and SEQ. ID. NO. 9 substrate, ECL. In kind it is biochemical, human. The following applies: solubilized γ-secretase. As for the experimental part: (§1) The ensuing supernatant solution provides “solubilized γ-secretase”.
(§2) In vitro assays measuring γ-secretase activity were performed using cell membranes or as “solubilized γ-secretase”. In one reaction, SEQ. ID. NO. […] ID. NO.

Series [5] concerns the target T1, solubilized γ-secretase (CHAPSO-extracted HeLa cell membranes) (Homo sapiens, UniProt P49768).
T1 construct: ID; NO; 9 su
Described as above. The format is biochemical. The following applies: assaying for Aβ40 cleavage, FIG. 2A; read-out: Apparent Km value of solubilized γ-secretase for substrate. Here is the method:
as §1, §2

Series [6] deals with solubilized γ-secretase (supernatant solution from 1% CHAPSO-extracted HeLa S3 cell membranes). Put plainly: cell-based or functional assay.

Turning to `C[C@H](CCC(=O)NCCC[N+](C)(C)CC(O)CS(=O)(=O)[O-])[C@H]1CC[C@H]2[C@@H]3[C@H](O)C[C@@H]4C[C@H](O)CC[C@]4(C)[C@H]3C[C@H](O)[C@]12C` (some centres unmarked) [CHAPSO], the “M-Aβ 40 production” value in series [1] is listed as 0.07 ECL signal × 10^−6; in series [3] (detergent 0.125%) it was 2.2 ECL signal × 10^−6; in series [3] (detergent 0.25%), 8.74 ECL signal × 10^−6; in series [3] (detergent 0.5%) it was 1.22 ECL signal × 10^−6; in series [3] (detergent 1%) it was 0.03 ECL signal × 10^−6. For the same compound, the “% of total γ-secretase activity in Membranes fraction” value in series [2] (CHAPSO 0.25%) turned out to be 97%; in series [2] (CHAPSO 0.50%), 65%; in series [2] (CHAPSO 1.00%) it was 51%; in series [2] (CHAPSO 2.0%), 50%. In addition, the “% of total γ-secretase activity in Solubilized fraction” value is 3% in series [2] (CHAPSO 0.25%), 35% in series [2] (CHAPSO 0.50%) and 50% in series [2] (CHAPSO 2.0%). Further, the “Detergent concentration giving optimal γ-secretase activity” value in series [3] (HeLa cell membranes) was 0.25%. Further, the “Effect of detergent on in vitro γ-secretase cleavage of substrate” value (from here on “Effect of detergent”) in series [3] (HeLa cell membranes) is listed as “promotes cleavage at the γ-secretase scissile bond”.

Regarding `C[C@H](CCC(=O)NCCC[N+](C)(C)CCCS(=O)(=O)[O-])[C@H]1CC[C@H]2[C@@H]3[C@H](O)C[C@@H]4C[C@H](O)CC[C@]4(C)[C@H]3C[C@H](O)[C@]12C` [CHAPS], the “M-Aβ 40 production” value in series [1] is on record as 0.04 ECL signal × 10^−6; in series [3] (detergent 0.125%) it was 0.03 ECL signal × 10^−6; in series [3] (detergent 0.25%) it was 3.21 ECL signal × 10^−6; in series [3] (detergent 0.5%), 0.27 ECL signal × 10^−6; in series [3] (detergent 1%) it was 0.03 ECL signal × 10^−6. The “Effect of detergent” value in series [3] (HeLa cell membranes) is “promotes cleavage at the γ-secretase scissile bond”.

Consider `CC(C)C[C@H](NC(=O)[C@H](Cc1ccccc1)C[C@@H](O)[C@H](Cc1ccccc1)NC(=O)OC(C)(C)C)C(=O)N[C@@H](Cc1ccccc1)C(N)=O` [L-685,458], for which the “Intracellular accumulation of APP fragments (α-CTF, β-CTF)” value at γ-secretase was “intracellular accumulation of APP immunoreactive fragments that co-migrate with α-CTF and β-CTF”.

For the compound “SEQ. ID. NO. 9 substrate: γ-secretase substrate: fusion protein of N-terminal Met, APP597-695 (β-CTF domain) and C-terminal Flag tag DYKDDDDK”, the Aβ42/Aβ40 cleavage ratio entry in series [4] and in series [3] (intact membranes) was “approximately 0.1” in each case. In addition, the Km – broadly, the substrate concentration at which the rate is half of its maximum – in series [5] is approximately 1 µM.

Take Triton X-100: the “M-Aβ 40 production” value in series [1], in series [3] (detergent 0.125%), in series [3] (detergent 0.25%), in series [3] (detergent 0.5%) and in series [3] (detergent 1%) was 0.02 ECL signal × 10^−6 in each case. Also, the “Effect of detergent” value in series [3] (HeLa cell membranes) was “fails to potentiate in vitro γ-secretase activity”.

In series [6], pepstatin (peptide) gave an IC50 for inhibiting the generation of the Aβ40 terminus (in vitro γ-secretase assay, ECL) of 4 µM and an IC50 for inhibiting the generation of the Aβ42 terminus (in vitro γ-secretase assay, ECL) of 5.9 µM.
